{"source": "the OligoGym collection", "target": "HIF1A", "assay": "HeLa, 100 nM transfected, 24 h, mean of 3", "settings": "ASO", "note": "Bases are written 5' to 3'; sugars and linkages follow in the same order, as letters with counts (s phosphorothioate, o phosphodiester; PS: all linkages phosphorothioate). C may stand for cytosine or 5-methylcytosine; the collection does not tell. l = locked nucleic acid (LNA); d = 2'-deoxy (DNA)"}
{"sequence": "TTACTGCCTTCTT (sugars l1 d9 l1 d1 l1, PS)", "values": [{"measurement": "caspase activation (% of PBS control)", "value": 127}]}
{"sequence": "TTACTGCCTTCTT (sugars l1 d9 l3, PS)", "values": [{"measurement": "caspase activation (% of PBS control)", "value": 131}]}
{"sequence": "TTACTGCCTTCTT (sugars l1 d10 l2, PS)", "values": [{"measurement": "caspase activation (% of PBS control)", "value": 102}]}
{"sequence": "TTACTGCCTTCTT (sugars l1 d11 l1, PS)", "values": [{"measurement": "caspase activation (% of PBS control)", "value": 82.9}]}
{"sequence": "TTACTGCCTTCTT (sugars l2 d1 l1 d6 l3, PS)", "values": [{"measurement": "caspase activation (% of PBS control)", "value": 325}]}
{"sequence": "TTACTGCCTTCTT (sugars l2 d1 l1 d7 l2, PS)", "values": [{"measurement": "caspase activation (% of PBS control)", "value": 202}]}
{"sequence": "TTACTGCCTTCTT (sugars l2 d1 l1 d8 l1, PS)", "values": [{"measurement": "caspase activation (% of PBS control)", "value": 147}]}
{"sequence": "TTACTGCCTTCTT (sugars l2 d8 l1 d1 l1, PS)", "values": [{"measurement": "caspase activation (% of PBS control)", "value": 198}]}
{"sequence": "TTACTGCCTTCTT (sugars l2 d8 l3, PS)", "values": [{"measurement": "caspase activation (% of PBS control)", "value": 270}]}
{"sequence": "TTACTGCCTTCTT (sugars l2 d9 l2, PS)", "values": [{"measurement": "caspase activation (% of PBS control)", "value": 148}]}
{"sequence": "TTACTGCCTTCTT (sugars l2 d10 l1, PS)", "values": [{"measurement": "caspase activation (% of PBS control)", "value": 158}]}
{"sequence": "TTACTGCCTTCTT (sugars l3 d7 l1 d1 l1, PS)", "values": [{"measurement": "caspase activation (% of PBS control)", "value": 205}]}
{"sequence": "TTACTGCCTTCTT (sugars l3 d7 l3, PS)", "values": [{"measurement": "caspase activation (% of PBS control)", "value": 291}]}
{"sequence": "TTACTGCCTTCTT (sugars l3 d8 l2, PS)", "values": [{"measurement": "caspase activation (% of PBS control)", "value": 226}]}
{"sequence": "TTACTGCCTTCTT (sugars l3 d9 l1, PS)", "values": [{"measurement": "caspase activation (% of PBS control)", "value": 128}]}
{"sequence": "TTACTGCCTTCTT (sugars l4 d6 l1 d1 l1, PS)", "values": [{"measurement": "caspase activation (% of PBS control)", "value": 308}]}
{"sequence": "TTACTGCCTTCTT (sugars l4 d6 l3, PS)", "values": [{"measurement": "caspase activation (% of PBS control)", "value": 396}]}
{"sequence": "TTACTGCCTTCTT (sugars l4 d7 l2, PS)", "values": [{"measurement": "caspase activation (% of PBS control)", "value": 337}]}
{"sequence": "TTACTGCCTTCTT (sugars l4 d8 l1, PS)", "values": [{"measurement": "caspase activation (% of PBS control)", "value": 202}]}
{"sequence": "TTACTGCCTTCTT (sugars lddlddddddldl, PS)", "values": [{"measurement": "caspase activation (% of PBS control)", "value": 127}]}
{"sequence": "TTACTGCCTTCTT (sugars ldldddddddldl, PS)", "values": [{"measurement": "caspase activation (% of PBS control)", "value": 154}]}
{"sequence": "TTACTGCCTTCTT (sugars ldllddddddldl, PS)", "values": [{"measurement": "caspase activation (% of PBS control)", "value": 181}]}
{"sequence": "TTACTGCCTTCTT (sugars lldlddddddldl, PS)", "values": [{"measurement": "caspase activation (% of PBS control)", "value": 222}]}
